Data taken from patent publication US20240409581A1, “SMALL-MOLECULE PEPTIDE AND USE THEREOF AGAINST METABOLIC-[…] LIVER DISEASE AND FOR REDUCING BODY WEIGHT” (Tunghai University, priority 2023, published 2024).

Assays:
Format in all cases: in vivo, C57BL/6JNarl mice (male)
[1] = tested on: MAFLD-mode mice (diet with 60% kcal fat+30% v/v fructose corn syrup); test: Analysis of the hepatic lipid content (enzymatic colorimetric method) of MAFLD-mode mice; conditions: eight weeks, liver; for hVLDL (hepatic very-low-density lipoprotein): calculated as 1/5 of the hepatic triglyceride level;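 as to hTC (hepatic total cholesterol): reported in mg/dL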;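 as to hTG (hepatic triglyceride): reported in mg/dL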;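 as to hVLDL (hepatic very-low-density lipoprotein): reported in mg/dL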
Experimental: (§1) 100 five-week-old C57BL/6JNarl mice (male) were raised in an environment whose temperature was 22-25° C., whose relative humidity was 45%-60%, and which adopted a 12-hour light/12-hour darkness cycle. The mice were fed with common feed and water for three weeks and then randomly divided into 10 groups, whose subsequent treatments are as follows:
(§2) Each of the four peptides was mixed with 0.5% Carboxymethyl Cellulose (CMC) to form a peptide solution, before the peptide solution was fed into the stomach of each mouse in the corresponding group with a syringe.
(§3) The test lasted eight weeks. The body weights of, and the amounts of food consumed by, the mice in each group were measured and recorded each week. The mice were sacrificed at the end of the test, and the livers, spleens, and white adipose tissue of the mice in each group were weighed.
After the test of example 1, the mice in each group were sacrificed, and the livers of the mice were collected in order to measure the hepatic lipid content of the liver of each mouse by an enzymatic colorimetric method. The items measured were hepatic triglyceride (hTG), hepatic total cholesterol (hTC), hepatic free fatty acid (hFFA), and hepatic very-low-density lipoprotein (hVLDL), wherein the hVLDL level was calculated as ⅕ of the hepatic triglyceride level.

[2] = tested on: MAFLD-mode mice (diet with 60% kcal fat+30% v/v fructose corn syrup); test: Animal test: body, liver, spleen and white adipose tissue weights of MAFLD-mode mice; conditions: for Epididymal white adipose tissue / Final body weight / Liver weight / Mesenteric white adipose tissue / Perirenal white adipose tissue / Spleen weight: eight weeks, high-fat/fructose diet; for Initial body weight: before the eight-week test
Experimental: as §1
Group 1: This was the blank group. The mice in this group were fed with common animal feed and distilled water.
Group 2: This was the control group. The mice in this group were fed with a diet with 60% kcal fat+30% v/v fructose corn syrup (and a 0.5% carboxymethyl cellulose (CMC) solution) and thereby induced to develop into MAFLD-mode mice.
Group 3: This was the low-dosage YF dipeptide group. The mice in this group were fed with the Tyr-Phe dipeptide at a dose of 10 mg/kg/day, in addition to a diet with 60% kcal fat+30% v/v fructose corn syrup.
Group 4: This was the high-dosage YF dipeptide group. The mice in this group were fed with the Tyr-Phe dipeptide at a dose of 50 mg/kg/day, in addition to a diet with 60% kcal fat+30% v/v fructose corn syrup.
Group 5: This was the low-dosage FY dipeptide group. The mice in this group were fed with the Phe-Tyr dipeptide at a dose of 10 mg/kg/day, in addition to a diet with 60% kcal fat+30% v/v fructose corn syrup.
Group 6: This was the high-dosage FY dipeptide group. The mice in this group were fed with the Phe-Tyr dipeptide at a dose of 50 mg/kg/day, in addition to a diet with 60% kcal fat+30% v/v fructose corn syrup.
Group 7: This was the low-dosage EWYF tetrapeptide group. The mice in this group were fed with the Glu-Trp-Tyr-Phe tetrapeptide (which has the sequence of SEQ ID No.: 1) at a dose of 10 mg/kg/day, in addition to a diet with 60% kcal fat+30% v/v fructose corn syrup.
Group 8: This was the high-dosage EWYF tetrapeptide group. The mice in this group were fed with the Glu-Trp-Tyr-Phe tetrapeptide (which has the sequence of SEQ ID No.: 1) at a dose of 50 mg/kg/day, in addition to a diet with 60% kcal fat+30% v/v fructose corn syrup.
Group 9: This was the low-dosage EWFY tetrapeptide group. The mice in this group were fed with the Glu-Trp-Phe-Tyr tetrapeptide (which has the sequence of SEQ ID No.: 2) at a dose of 10 mg/kg/day, in addition to a diet with 60% kcal fat+30% v/v fructose corn syrup.
Group 10: This was the high-dosage EWFY tetrapeptide group. The mice in this group were fed with the Glu-Trp-Phe-Tyr tetrapeptide (which has the sequence of SEQ ID No.: 2) at a dose of 50 mg/kg/day, in addition to a diet with 60% kcal fat+30% v/v fructose corn syrup.
as §2, §3

[3] = tested on: MAFLD-mode mice (diet with 60% kcal fat+30% v/v fructose corn syrup); test: Biochemical analysis of blood (sALT and serum lipid indices) of MAFLD-mode mice; conditions: eight weeks
Experimental: as §1, §2, §3
After the test of example 1, blood samples were taken from the mice in each group, and the serum alanine transaminase (sALT), serum triglyceride (sTG), serum total cholesterol (sTC), serum free fatty acid (sFFA), and serum very-low-density lipoprotein (sVLDL) levels of the blood samples were measured.

[4] = baseline of the 10 mg/kg/day group
[5] = baseline of the 50 mg/kg/day group

Row | Substance | hFFA (hepatic free fatty acid) ([1]; 10 mg/kg/day) | hTC (hepatic total cholesterol) ([1]; 10 mg/kg/day) | hTG (hepatic triglyceride) ([1]; 10 mg/kg/day) | hVLDL (hepatic very-low-density lipoprotein) ([1]; 10 mg/kg/day) | hFFA (hepatic free fatty acid) ([1]; 50 mg/kg/day) | hTC (hepatic total cholesterol) ([1]; 50 mg/kg/day) | hTG (hepatic triglyceride) ([1]; 50 mg/kg/day) | hVLDL (hepatic very-low-density lipoprotein) ([1]; 50 mg/kg/day) | Epididymal white adipose tissue ([2]; 10 mg/kg/day into the stomach) | Final body weight ([2]; 10 mg/kg/day into the stomach) | Liver weight ([2]; 10 mg/kg/day into the stomach) | Mesenteric white adipose tissue ([2]; 10 mg/kg/day into the stomach) | Perirenal white adipose tissue ([2]; 10 mg/kg/day into the stomach) | Spleen weight ([2]; 10 mg/kg/day into the stomach) | Epididymal white adipose tissue ([2]; 50 mg/kg/day into the stomach) | Final body weight ([2]; 50 mg/kg/day into the stomach) | Liver weight ([2]; 50 mg/kg/day into the stomach) | Mesenteric white adipose tissue ([2]; 50 mg/kg/day into the stomach) | Perirenal white adipose tissue ([2]; 50 mg/kg/day into the stomach) | Spleen weight ([2]; 50 mg/kg/day into the stomach) | other results
1 | Phe-Tyr [FY] | 119.27 ± 29.07 mEq/L | 12.06 ± 1.19 mg/dL | 44.58 ± 6.77 mg/dL | 8.92 ± 1.35 mg/dL | 112.49 ± 25.02 mEq/L | 10.97 ± 1.2 mg/dL | 41.49 ± 8.52 mg/dL | 8.30 ± 1.70 mg/dL | 1.328 ± 0.234 g | 30.10 ± 1.29 g | 1.037 ± 0.089 g | 0.289 ± 0.055 g | 0.544 ± 0.077 g | 58.8 ± 7.2 mg | 1.220 ± 0.301 g | 28.93 ± 1.27 g | 0.991 ± 0.078 g | 0.257 ± 0.067 g | 0.487 ± 0.098 g | 54.2 ± 5.6 mg | Initial body weight [2, 4]: 22.88 ± 1.09 g; Initial body weight [2, 5]: 22.75 ± 1.10 g; sALT (serum alanine transaminase) ([3]; 10 mg/kg/day): 53.1 ± 21.40 IU/L; sFFA (serum free fatty acid) ([3]; 10 mg/kg/day): 1.03 ± 0.338 mEq/L; sTC (serum total cholesterol) ([3]; 10 mg/kg/day): 158.43 ± 20.37 mg/dL; sTG (serum triglyceride) ([3]; 10 mg/kg/day): 106.80 ± 23.45 mg/dL; sVLDL (serum very-low-density lipoprotein) ([3]; 10 mg/kg/day): 21.36 ± 4.69 mg/dL; sALT (serum alanine transaminase) ([3]; 50 mg/kg/day): 42.6 ± 17.60 IU/L; sFFA (serum free fatty acid) ([3]; 50 mg/kg/day): 0.905 ± 0.179 mEq/L; sTC (serum total cholesterol) ([3]; 50 mg/kg/day): 146.76 ± 19.73 mg/dL; sTG (serum triglyceride) ([3]; 50 mg/kg/day): 97.80 ± 22.91 mg/dL; sVLDL (serum very-low-density lipoprotein) ([3]; 50 mg/kg/day): 19.56 ± 4.58 mg/dL
2 | Tyr-Phe [YF] | 110.93 ± 21.96 mEq/L | 11.22 ± 1.23 mg/dL | 41.81 ± 8.32 mg/dL | 8.36 ± 1.66 mg/dL | 98.90 ± 24.07 mEq/L | 9.76 ± 1.45 mg/dL | 36.95 ± 8.33 mg/dL | 7.39 ± 1.67 mg/dL | 1.452 ± 0.433 g | 30.22 ± 2.07 g | 0.996 ± 0.094 g | 0.298 ± 0.088 g | 0.526 ± 0.069 g | 59.9 ± 8.2 mg | 1.182 ± 0.265 g | 28.98 ± 1.76 g | 0.982 ± 0.085 g | 0.251 ± 0.056 g | 0.481 ± 0.080 g | 53.8 ± 6.4 mg | Initial body weight [2, 4]: 22.82 ± 1.01 g; Initial body weight [2, 5]: 22.84 ± 1.25 g; sALT (serum alanine transaminase) ([3]; 10 mg/kg/day): 44.4 ± 15.09 IU/L; sFFA (serum free fatty acid) ([3]; 10 mg/kg/day): 0.932 ± 0.336 mEq/L; sTC (serum total cholesterol) ([3]; 10 mg/kg/day): 155.01 ± 25.12 mg/dL; sTG (serum triglyceride) ([3]; 10 mg/kg/day): 103.38 ± 22.62 mg/dL; sVLDL (serum very-low-density lipoprotein) ([3]; 10 mg/kg/day): 20.68 ± 4.52 mg/dL; sALT (serum alanine transaminase) ([3]; 50 mg/kg/day): 36.3 ± 15.97 IU/L; sFFA (serum free fatty acid) ([3]; 50 mg/kg/day): 0.813 ± 0.243 mEq/L; sTC (serum total cholesterol) ([3]; 50 mg/kg/day): 140.70 ± 22.66 mg/dL; sTG (serum triglyceride) ([3]; 50 mg/kg/day): 95.19 ± 24.70 mg/dL; sVLDL (serum very-low-density lipoprotein) ([3]; 50 mg/kg/day): 19.04 ± 4.94 mg/dL
